The record followed here is patent US6440995B1, “Quinolin-4-yl derivatives” (Hoffman-La Roche Inc., priority 1999, dated 2002).

Where a name gives a salt, the structure may show the parent alone.

The target of the first data set is T1, NMDA receptor (Rattus norvegicus, UniProt P35439+Q00960).
T1 construct: Membranes were prepared by homogenization of the whole brain minus cerebellum and medulla oblongata; from tissue; host or cells: rat whole brain minus cerebellum and medulla oblongata, membranes
T1 sequence (Q00960 27-1482, other chains not shown): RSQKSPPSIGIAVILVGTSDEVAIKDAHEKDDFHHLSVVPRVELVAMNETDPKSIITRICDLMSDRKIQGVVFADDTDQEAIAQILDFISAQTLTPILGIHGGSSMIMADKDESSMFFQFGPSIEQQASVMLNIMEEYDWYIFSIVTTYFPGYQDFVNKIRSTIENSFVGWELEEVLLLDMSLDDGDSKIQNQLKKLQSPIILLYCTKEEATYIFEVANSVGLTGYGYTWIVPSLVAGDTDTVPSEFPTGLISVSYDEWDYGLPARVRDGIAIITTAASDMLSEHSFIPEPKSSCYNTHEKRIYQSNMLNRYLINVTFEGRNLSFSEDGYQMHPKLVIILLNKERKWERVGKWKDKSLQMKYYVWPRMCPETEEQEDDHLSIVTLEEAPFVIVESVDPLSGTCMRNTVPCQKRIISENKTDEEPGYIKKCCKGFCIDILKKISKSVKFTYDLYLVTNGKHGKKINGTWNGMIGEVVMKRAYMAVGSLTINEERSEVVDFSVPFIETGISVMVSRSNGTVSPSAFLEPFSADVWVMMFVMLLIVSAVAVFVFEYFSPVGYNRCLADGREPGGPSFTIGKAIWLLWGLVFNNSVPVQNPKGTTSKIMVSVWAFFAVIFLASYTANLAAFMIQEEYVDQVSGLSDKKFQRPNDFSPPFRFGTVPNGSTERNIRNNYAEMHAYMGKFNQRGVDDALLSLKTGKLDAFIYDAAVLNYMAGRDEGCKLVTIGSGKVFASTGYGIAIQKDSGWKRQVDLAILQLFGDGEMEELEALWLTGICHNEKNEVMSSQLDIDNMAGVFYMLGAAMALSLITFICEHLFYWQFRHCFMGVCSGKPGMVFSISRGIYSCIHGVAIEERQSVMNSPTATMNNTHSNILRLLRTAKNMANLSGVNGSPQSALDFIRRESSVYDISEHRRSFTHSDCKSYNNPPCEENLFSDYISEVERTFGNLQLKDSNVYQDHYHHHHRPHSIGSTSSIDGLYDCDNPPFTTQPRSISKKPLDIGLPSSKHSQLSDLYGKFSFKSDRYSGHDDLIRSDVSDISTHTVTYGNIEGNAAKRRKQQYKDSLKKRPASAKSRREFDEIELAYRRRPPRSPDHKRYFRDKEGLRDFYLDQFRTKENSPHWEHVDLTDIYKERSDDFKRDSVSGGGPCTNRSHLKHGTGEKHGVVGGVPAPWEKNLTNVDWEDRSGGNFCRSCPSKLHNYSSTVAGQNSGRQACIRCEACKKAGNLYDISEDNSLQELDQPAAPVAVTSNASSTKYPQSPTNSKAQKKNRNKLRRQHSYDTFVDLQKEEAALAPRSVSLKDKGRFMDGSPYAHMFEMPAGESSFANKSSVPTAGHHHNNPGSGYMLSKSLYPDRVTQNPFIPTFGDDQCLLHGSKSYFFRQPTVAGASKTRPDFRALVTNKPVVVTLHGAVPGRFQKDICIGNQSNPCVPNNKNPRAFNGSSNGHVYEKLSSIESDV
Nature of the data set: 3H-Ro 25-6981 binding (displacement, rat brain membranes). The conditions noted are these: displacement of 5 nM 3H-Ro 25-6981; rat whole brain minus cerebellum and medulla oblongata membranes; 2 hours at 4° C., pH 7.4. The method, then: 3H-Ro 25-6981 binding (Ro 25-6981 is [R-(R*,S*)]-a-(4-Hydroxy-phenyl)-b-methyl-4-(phenyl-methyl)-1-piperidine propanol)
Male Füllinsdorf albino rats weighing between 150-200 g were used. Membranes were prepared by homogenization of the whole brain minus cerebellum and medulla oblongata with a Polytron (10 000 rpm, 30 seconds), in 25 volumes of a cold Tris-HCl 50 mM, EDTA 10 mM, pH 7.1 buffer. The homogenate was centrifuged at 48.000 g for 10 minutes at 4° C. The pellet was resuspended using the Polytron in the same volume of buffer and the homogenate was incubated at 37° C. for 10 minutes. After centrifugation the pellet was homogenized in the same buffer and frozen at −80° C. for at least 16 hours but not more than 10 days. For the binding assay the homogenate was thawed at 37° C., centrifuged and the pellet was washed three times as above in a Tris-HCl 5 mM, pH 7.4 cold buffer. The final pellet was resuspended in the same buffer and used at a final concentration of […].
3H-Ro 25-6981 binding experiments were performed using a Tris-HCl 50 mM, pH 7.4 buffer. For displacement experiments 5 nM of 3H-Ro 25-6981 were used and non specific binding was measured using 10 mM of tetrahydroisoquinoline and usually it accounts for 10% of the total. The incubation time was 2 hours at 4° C. and the assay was stopped by filtration on Whatmann GF/B glass fiber filters (Unifilter-96, Packard, Zürich, Switzerland). The filters were washed 5 times with cold buffer. The radioactivity on the filter was counted on a Packard Top-count microplate scintillation counter after addition of […] of microscint 40 (Canberra Packard S.A., Zürich, Switzerland).
The effects of compounds were measured using a minimum of 8 concentrations and repeated at least once. The pooled normalized values were analyzed using a non-linear regression calculation program which provide IC50) with their relative upper and lower 95% confidence limits (RS1, BBN, USA).
For the molecule `Cl.OCCNc1cc(-c2ccc3c(c2)CCCC3)nc2ccccc12` [Example 18, 2-[2-(5,6,7,8-Tetrahydro-naphthalen-2-yl)-quinolin-4-ylamino]-ethanol hydrochloride], the IC50 was found to be 0.04 µM.
Same read-out and setting: with `Cc1ccc(-c2cc(NCC(O)CN)c3ccccc3n2)cc1.Cl` (racemic) [Example 2, (RS)-1-Amino-3-(2-p-tolyl-quinolin-4-ylamino)-propan-2-ol hydrochloride] the figure was 0.02 µM.
The same measure, in the same setting: as for `OCC(O)CNc1cc(-c2ccc3c(c2)CCO3)nc2ccccc12` (racemic) [Example 32, (RS)-3-[2-(2,3-Dihydro-benzofuran-5-yl)-quinolin-4-ylamino]-propane-1,2-diol hydrochloride], the figure is 0.066 µM; as for `COc1ccc(-c2cc(N(C)CCO)c3ccccc3n2)cc1.Cl` [Example 46, 2-{[2-(4-Methoxy-phenyl)-quinolin-4-yl]-methyl-amino}-ethanol hydrochloride], 0.13 µM; as for `CNCC(O)CNc1cc(-c2ccc(OC)cc2)nc2ccccc12` (racemic) [Example 77, (RS)-1-[2-(4-Methoxy-phenyl)-quinolin-4-ylamino]-3-methylamino-propan-2-ol hydrochloride], 0.058 µM.
Regarding `NCC(O)CNc1cc(N2CCc3ccccc3C2)nc2ccccc12` (racemic) [Example 10, (RS)-1-Amino-3-[2-(3,4-dihydro-1H-isoquinolin-2-yl)-quinolin-4-ylamino]-propan-2-ol hydrochloride], the IC50 was found to be 0.03 µM.

Test system in another data set: not given
Test: not given
Details: not given
For `CNCC(O)COc1cc(-c2ccc(C)cc2)nc2cc(C)ccc12` (racemic), the melting point fell in the range of 146 to 150 °C.
On to `Cl.OCCNc1cc(-c2ccc3c(c2)CCCC3)nc2ccccc12` [Example 18, 2-[2-(5,6,7,8-Tetrahydro-naphthalen-2-yl)-quinolin-4-ylamino]-ethanol hydrochloride], for which the melting point lay within 250 to 252 °C.
As to `COc1ccc(-c2cc(NCCO)c3ccc(C)cc3n2)cc1.Cl`, the melting point was 233 to 238 °C.
Still for that read-out and setting: as for `O=C(O)/C=C/C(=O)O.OCC(O)CNc1cc(/C=C/c2ccccc2)nc2ccccc12` (racemic), the figure is 220 to 222 °C.
The same measure, in the same setting: as for `CNCC(O)COc1cc(-c2ccsc2)nc2ccccc12.Cl` (racemic), the figure is 236 to 238 °C; as for `Cc1ccc(-c2cc(NCC(O)CN)c3ccccc3n2)cc1.Cl` (racemic) [Example 2, (RS)-1-Amino-3-(2-p-tolyl-quinolin-4-ylamino)-propan-2-ol hydrochloride], 264 to 272 °C; as for `Cl.OCC(O)CNc1cc(-c2ccccc2)nc2ccccc12` (racemic), 225 to 227 °C.
Same read-out and setting: with `COc1cccc2c(NCC(O)CO)cc(-c3ccccc3)nc12.Cl` (racemic) the figure was 110 to 116 °C; with `CNCC(O)COc1cc(-c2ccc(OC)cc2)nc2cc(C)ccc12` (racemic), 140 to 142 °C.
Regarding `Cl.OCC(O)CNc1cc(N2Cc3ccccc3C2)nc2ccccc12` (racemic), the melting point is 295 to 301 °C.
The same measure, in the same setting: as for `CCNCC(O)COc1cc(-c2ccccc2)nc2ccccc12.Cl` (stereo not shown), the figure is 170 to 174 °C.
`COc1ccc(-c2cc(N(C)CCO)c3ccccc3n2)cc1.Cl` [Example 46, 2-{[2-(4-Methoxy-phenyl)-quinolin-4-yl]-methyl-amino}-ethanol hydrochloride] gave a melting point of 201 to 204 °C.
Still for that read-out and setting: with `Cl.OCC(O)CNc1cc(-c2cc3ccccc3o2)nc2ccccc12` (racemic) the figure was 263 to 265 °C; with `C[C@H](O)CNc1cc(-c2ccc3c(c2)CCO3)nc2ccccc12.Cl`, 236 to 242 °C.
Same read-out and setting: as for `CC(C)NCC(O)COc1cc(-c2ccccc2)nc2ccccc12` (racemic), the figure is 109 to 111 °C; as for `NCC(O)CNc1cc(-c2ccc(Cl)cc2)nc2ccccc12` (racemic), 283 to 287 °C; as for `Cl.NCC(O)CNc1cc(-c2ccccc2)nc2ccccc12` (racemic), 291 to 294 °C.
Still for that read-out and setting: with `Cc1ccc(-c2cc(NCC(O)CO)c3ccccc3n2)cc1Cl.Cl` (racemic) the figure was 230 to 231 °C; with `OCC(O)CNc1cc(-c2ccc3c(c2)CCO3)nc2ccccc12` (racemic) (as salt: hydrochloride) [Example 32, (RS)-3-[2-(2,3-Dihydro-benzofuran-5-yl)-quinolin-4-ylamino]-propane-1,2-diol hydrochloride], 267 to 270 °C; with `Cc1ccc(-c2cc(NC[C@H](C)O)c3ccc(C)cc3n2)cc1.Cl`, 264 to 267 °C.
`CNCC(O)COc1cc(-c2ccccc2)nc2cc(Cl)ccc12.Cl` (racemic) gave a melting point of 192 to 193 °C.
The same measure, in the same setting: as for `Cl.OCC(O)CNc1cc(CCc2ccccc2)nc2ccccc12` (racemic), the figure is 143 to 145 °C.
`Cl.Cl.NCC(O)CNc1cc(-c2ccc(Cl)cc2)nc2ccccc12` (racemic) showed a melting point of 283 to 287 °C.
In the case of `COc1cccc2c(NCCO)cc(-c3ccccc3)nc12.Cl`, the melting point was in the range of 205 to 209 °C.
Still for that read-out and setting: with `Cl.OCCNc1cc(-c2ccc(Cl)cc2)nc2ccccc12` the figure was 262 to 264 °C; with `Cc1ccc(-c2cc(NCCO)c3ccc(C)cc3n2)cc1.Cl`, 260 to 263 °C; with `CC(O)CNc1cc(-c2ccccc2)nc2ccccc12.Cl` (racemic), 251 to 253 °C.
`Cc1cccc(-c2cc(NCC(O)CO)c3ccccc3n2)c1.Cl` (racemic) displayed a melting point of 208 to 215 °C.
